The values that follow come from patent US20230302131A1, “MPC INHIBITION FOR PRODUCING T-CELLS WITH A MEMORY PHENOTYPE” (UNIVERSITÉ DE LAUSANNE, priority 2020, published 2023).

For the assay, the system named is transferred OT1 cells in LM-OVA infected mice. Briefly: In vivo Listeria-Ova infection model after adoptive transfer of pre-treated OT1 cells. The arrangement: species or system mouse. The source says:
In order to evaluate whether this memory phenotype is maintained in vivo, 10^5 MPCi- or DMSO-treated OT1 cells were intravenously injected in healthy mice. Twenty-four hours after cell transfer, the mice were infected with a sub-lethal dose of ovalbumine-expressing Listeria monocytogenes (LM-OVA, 2000 CFU i.v.) (FIG. 1H). […] Consequently, 28 days after LM-OVA infection, during the memory phase of the immune reaction, the proportion of central memory T cells (CD44+CD62L+) among the transferred cells in the blood was larger in mice that received cells pre-treated with MPCi (FIG. 1K). Importantly, the effects of the MPC inhibitor were target specific, since an increase in memory T cell differentiation could also be observed when MPC1 KO T cells were transferred in this Listeria model (FIG. 1L-N). In summary, MPCi-treated cells display a consistent memory phenotype upon in vivo transfer in an infection model.
Activated CD45.1+OT-1 splenocytes were culture in vitro for 7 days as described above, collected and purified on a Ficoll gradient, allowing to separate dead and live splenocytes. Live splenocytes were counted with Trypan blue stain 0.4%. 100′000 live splenocytes were transferred into CD45.2+ host mice by tail vein injection.
Recombinant bacteria Listeria monocytogenes deficient for actA and expressing the ovalbumin (Ova) peptide SIINFEKL were expanded and tittered. Optical density measured with a spectrophotometer was used to determine bacterial concentration and 2000 CFU were administered in each mouse by tail vein injection, […] after adoptive cell transfer. Blood samples were collected and processed for surface markers and cytokine production analyses.
Antibody panels for blood analyses contained: CD8-PE-texas-Red, CD45.1-Pacific blue, CD45.2-FITC, CD127-PE, KLRG1-PE-Cy7, CD62L-APC, CD44-APC-Cy7, and CD27-PerCP-Cy5.5.

Regarding `N#CC(=Cc1cn(-c2ccccc2)c2ccccc12)C(=O)O` [UK5099, 2-cyano-3-(1-phenyl-1H-indol-3-yl)-2-propenoic acid], the “proportion of central memory T cells (CD44+CD62L+) among the transferred cells in the blood” value (28 days after LM-OVA infection, vs DMSO) is “larger”. Moreover, the “frequency of memory precursor cells (CD127+, KLRG1low)” value (day 7 post-LM-OVA, blood, pre-treated OT1 cells vs DMSO) is recorded as “significantly increased”. Where the note is “weekly bleeding, peak of immune response and contraction phase, cells pre-treated in vitro”, the “frequency of the transferred cells in blood” value was “did not reveal significant differences”.
